Measurements: patent US12172983B2, “EGFR inhibitors” (Blueprint Medicines Corporation, priority 2019, dated 2024)
pIC50: −log10 of the molar value.

Legend:
[1] = test system: phosphorylation of EGFR (Tyr1068) in NCI-H1975 cell line that harbors the EGFR L858R T790M mutations; experiment: NCI-H1975 pEGFR AlphaLISA assay; type: cell-based; conditions: Homo sapiens, NCI-H1975, inhibition of phosphorylation of mutant EGFR in NCI-H1975 cells; 4-5 hours incubation; read-out: Ext pEGFR H1975
In short: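 NCI-H1975 cells (EGFR L858R/T790M) seeded overnight, then treated with compound for 4-5 h at 37 °C/5% CO2. After lysis, p-EGFR (Tyr1068) quantified by AlphaLISA SureFire Ultra with acceptor then donor beads; IC50 fitted from percent inhibition versus log concentration.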

EGFR (L858R T790M C797S) = biological target: T1, EGFR (L858R T790M C797S) (Homo sapiens, UniProt P00533, C797S/L858R/T790M); experiment: Biochemical EGFR inhibition assay (Caliper mobility shift), EGFR LRTMCS mutant; conditions: inhibitory activity against EGFR LRTMCS mutant; apparent IC50; read-out: Ext Enz LRTMCS
T1 construct: purchased SignalChem E10-122VG
In short: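 Each enzyme was allowed to phosphorylate 10–20% of its peptide at 25° C. before EDTA (35 mM) quench. Separated substrate and product peaks were measured by mobility shift, giving apparent IC50 values.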

T1 sequence (P00533 25-1210 T790M/C797S/L858R): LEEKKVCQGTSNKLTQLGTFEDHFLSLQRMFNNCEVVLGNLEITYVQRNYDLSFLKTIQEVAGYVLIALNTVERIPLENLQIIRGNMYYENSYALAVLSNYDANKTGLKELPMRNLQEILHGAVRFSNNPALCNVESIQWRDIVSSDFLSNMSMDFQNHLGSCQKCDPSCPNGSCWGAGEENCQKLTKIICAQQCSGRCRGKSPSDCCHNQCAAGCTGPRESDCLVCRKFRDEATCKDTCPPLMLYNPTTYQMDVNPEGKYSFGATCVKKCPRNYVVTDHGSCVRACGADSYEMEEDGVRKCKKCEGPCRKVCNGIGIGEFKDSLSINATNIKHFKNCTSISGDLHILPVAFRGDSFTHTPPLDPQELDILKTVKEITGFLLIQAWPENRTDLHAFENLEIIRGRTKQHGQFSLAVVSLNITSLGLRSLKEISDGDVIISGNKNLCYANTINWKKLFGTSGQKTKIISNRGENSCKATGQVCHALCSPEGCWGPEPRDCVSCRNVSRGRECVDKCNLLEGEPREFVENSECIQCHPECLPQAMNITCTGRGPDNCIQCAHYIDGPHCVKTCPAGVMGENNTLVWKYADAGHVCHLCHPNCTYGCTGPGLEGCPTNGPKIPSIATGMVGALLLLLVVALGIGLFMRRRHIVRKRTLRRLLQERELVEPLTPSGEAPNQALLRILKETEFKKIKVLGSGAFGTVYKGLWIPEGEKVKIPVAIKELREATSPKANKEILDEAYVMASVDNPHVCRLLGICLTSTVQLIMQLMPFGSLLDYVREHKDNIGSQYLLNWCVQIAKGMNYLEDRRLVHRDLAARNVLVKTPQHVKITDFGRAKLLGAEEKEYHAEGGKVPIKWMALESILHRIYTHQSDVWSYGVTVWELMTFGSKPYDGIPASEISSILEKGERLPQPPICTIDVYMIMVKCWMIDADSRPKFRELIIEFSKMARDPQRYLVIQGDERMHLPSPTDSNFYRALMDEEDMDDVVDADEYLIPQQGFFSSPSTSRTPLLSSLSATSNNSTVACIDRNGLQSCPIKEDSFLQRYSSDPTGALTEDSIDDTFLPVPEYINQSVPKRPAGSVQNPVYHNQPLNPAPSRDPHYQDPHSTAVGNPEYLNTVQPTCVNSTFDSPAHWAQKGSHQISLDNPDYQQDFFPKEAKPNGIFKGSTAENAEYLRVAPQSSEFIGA

CC[C@]1(F)CN(c2nccc(Nc3cc4c(C(C)C)ccc(N5CC(CS(C)(=O)=O)C5)c4cn3)n2)CC[C@H]1O (single isomer, unassigned) [Compound 115, (3S,4R)-3-ethyl-3-fluoro-1-[4-({8-[3-(methanesulfonylmethyl)azetidin-1-yl]-5-(propan-2-yl)isoquinolin-3-yl}amino)pyrimidin-2-yl]piperidin-4-ol or (3R,4S)-3-ethyl-3-fluoro-1-[4-({8-[3-(methanesulfonylmethyl)azetidin-1-yl]-5-(propan-2-yl)isoquinolin-3-yl}amino)pyrimidin-2-yl]piperidin-4-ol]
pIC50 [1]: ≥ 8.00
pIC50 (EGFR (L858R T790M C797S)): ≥ 7.82

CO[C@@H]1[C@H](O)CN(c2nccc(Nc3cc4c(C(C)C)ccc(N5C[C@H](CS(C)(=O)=O)[C@H]5C)c4cn3)n2)CC1(F)F (single isomer, unassigned) [Compound 232, (3S,4S)-5,5-difluoro-1-(4-(5-isopropyl-8-((2R,3S)-2-methyl-3-(methylsulfonylmethyl)azetidin-1-yl)isoquinolin-3-ylamino)pyrimidin-2-yl)-4-methoxypiperidin-3-ol or (3R,4R)-5,5-difluoro-1-(4-(5-isopropyl-8-((2R,3S)-2-methyl-3-(methylsulfonylmethyl)azetidin-1-yl)isoquinolin-3-ylamino)pyrimidin-2-yl)-4-methoxypiperidin-3-ol]
pIC50 [1]: ≥ 8.00
pIC50 (EGFR (L858R T790M C797S)): 7.00 to 7.52

CC(C)c1ccc(N2CC(CS(C)(=O)=O)C2)c2cnc(Nc3ccnc(N4CC5CCC(C4)O5)n3)cc12 [Compound 12, 8-[3-(methanesulfonylmethyl)azetidin-1-yl]-N-(2-{8-oxa-3-azabicyclo[3.2.1]octan-3-yl}pyrimidin-4-yl)-5-(propan-2-yl)isoquinolin-3-amine]
pIC50 [1]: 7.30 to 7.52
pIC50 (EGFR (L858R T790M C797S)): ≥ 7.82

CC(C)c1ccc(N2C[C@H](CS(C)(=O)=O)[C@H]2C)c2cnc(Nc3ccnc(N4CC[C@@H](F)[C@@H](O)C4)n3)cc12 (single isomer, unassigned) [Compound 269, (3S,4R)-4-fluoro-1-[4-({8-[(2R,3S)-3-(methanesulfonylmethyl)-2-methylazetidin-1-yl]-5-(propan-2-yl)isoquinolin-3-yl}amino)pyrimidin-2-yl]piperidin-3-ol or (3R,4S)-4-fluoro-1-[4-({8-[(2R,3S)-3-(methanesulfonylmethyl)-2-methylazetidin-1-yl]-5-(propan-2-yl)isoquinolin-3-yl}amino)pyrimidin-2-yl]piperidin-3-ol]
pIC50 [1]: ≥ 8.00
pIC50 (EGFR (L858R T790M C797S)): ≥ 7.82

CC(CF)c1ccc(N2CC(CS(C)(=O)=O)C2)c2cnc(Nc3ccnc(N4CC[C@@H](O)[C@@](C)(F)C4)n3)cc12 (single isomer, unassigned) [Compound 154]
pIC50 [1]: 7.52 to 7.70
pIC50 (EGFR (L858R T790M C797S)): ≥ 7.82

CCS(=O)(=O)C[C@H]1CN(c2cnc(C(C)C)c3cc(Nc4ccnc(N5CC[C@@](C)(O)C(F)(F)C5)n4)ncc23)[C@@H]1C (single isomer, unassigned) [Compound 231, (4R)-1-[4-({8-[(2R,3S)-3-[(ethanesulfonyl)methyl]-2-methylazetidin-1-yl]-5-(propan-2-yl)-2,6-naphthyridin-3-yl}amino)pyrimidin-2-yl]-3,3-difluoro-4-methylpiperidin-4-ol or (4S)-1-[4-({8-[(2R,3S)-3-[(ethanesulfonyl)methyl]-2-methylazetidin-1-yl]-5-(propan-2-yl)-2,6-naphthyridin-3-yl}amino)pyrimidin-2-yl]-3,3-difluoro-4-methylpiperidin-4-ol]
pIC50 [1]: ≥ 8.00
pIC50 (EGFR (L858R T790M C797S)): ≥ 7.82

CO[C@@H]1CCN(c2nccc(Nc3cc4c(C(C)C)ccc(N5CC(CS(C)(=O)=O)C5)c4cn3)n2)C[C@@H]1O (single isomer, unassigned) [Compound 52, (3S,4R)-1-(4-(5-isopropyl-8-(3-(methylsulfonylmethyl)azetidin-1-yl)isoquinolin-3-ylamino)pyrimidin-2-yl)-4-methoxypiperidin-3-ol or (3R,4S)-1-(4-(5-isopropyl-8-(3-(methylsulfonylmethyl)azetidin-1-yl)isoquinolin-3-ylamino)pyrimidin-2-yl)-4-methoxypiperidin-3-ol]
pIC50 [1]: ≥ 8.00
pIC50 (EGFR (L858R T790M C797S)): ≥ 7.82

CC(C)c1ccc(N2CC(CS(C)(=O)=O)C2)c2cnc(Nc3ccnc(N4CC[C@](C)(O)[C@H](F)C4)n3)cc12 (single isomer, unassigned) [Compound 57]
pIC50 [1]: 7.70 to 8.00
pIC50 (EGFR (L858R T790M C797S)): ≥ 7.82

CC(C)c1ccc(N2CC(CS(C)(=O)=O)C2)c2cnc(Nc3ccnc(N4CC[C@@H](O)[C@@H](F)C4)n3)cc12 [Compound 28, (3S,4R)-3-fluoro-1-[4-({8-[3-(methanesulfonylmethyl)azetidin-1-yl]-5-(propan-2-yl)isoquinolin-3-yl}amino)pyrimidin-2-yl]piperidin-4-ol]
pIC50 [1]: ≥ 8.00
pIC50 (EGFR (L858R T790M C797S)): ≥ 7.82

[2H]C([2H])([2H])O[C@H]1CCN(c2nccc(Nc3cc4c(C(C)C)ccc(N5CC(CS(C)(=O)=O)C5)c4cn3)n2)C[C@H]1F (single isomer, unassigned) [Compound 81]
pIC50 [1]: ≥ 8.00
pIC50 (EGFR (L858R T790M C797S)): ≥ 7.82

CC(C)c1cnc(N2CC(CS(=O)(=O)C(F)F)C2)c2cnc(Nc3ccnc(N4CC[C@@H](O)[C@@](C)(F)C4)n3)cc12 (single isomer, unassigned) [Compound 220]
pIC50 [1]: ≥ 8.00
pIC50 (EGFR (L858R T790M C797S)): ≥ 7.82

C[C@@H]1[C@@H](CS(C)(=O)=O)CN1c1ccc(C(F)(F)F)c2cc(Nc3ccnc(N4CC[C@@H](O)[C@@](C)(F)C4)n3)ncc12 (single isomer, unassigned) [Compound 222]
pIC50 [1]: ≥ 8.00
pIC50 (EGFR (L858R T790M C797S)): ≥ 7.82

C[C@@H]1[C@@H](CS(C)(=O)=O)CN1c1cccc2cc(Nc3ccnc(N4C[C@H](F)[C@H](O)C(C)(C)C4)n3)ncc12 (single isomer, unassigned) [Compound 30, (4S,5R)-5-fluoro-1-[4-({8-[(2R,3S)-3-(methanesulfonylmethyl)-2-methylazetidin-1-yl]isoquinolin-3-yl}amino)pyrimidin-2-yl]-3,3-dimethylpiperidin-4-ol or (4R,5S)-5-fluoro-1-[4-({8-[(2R,3S)-3-(methanesulfonylmethyl)-2-methylazetidin-1-yl]isoquinolin-3-yl}amino)pyrimidin-2-yl]-3,3-dimethylpiperidin-4-ol]
pIC50 [1]: ≥ 8.00
pIC50 (EGFR (L858R T790M C797S)): ≥ 7.82

CO[C@@H]1CCN(c2nccc(Nc3cc4c(F)ccc(N5C[C@H](CS(C)(=O)=O)[C@H]5C)c4cn3)n2)C[C@]1(C)F (single isomer, unassigned) [Compound 84]
pIC50 [1]: 7.70 to 8.00
pIC50 (EGFR (L858R T790M C797S)): ≥ 7.82

CCS(=O)(=O)C[C@H]1CN(c2cnc(C(C)C)c3cc(Nc4ccnc(N5CC[C@H](OCCO)[C@H](F)C5)n4)ncc23)[C@@H]1C [Compound 299, 2-{[(3R,4S)-1-[4-({8-[(2R,3S)-3-[(ethanesulfonyl)methyl]-2-methylazetidin-1-yl]-5-(propan-2-yl)-2,6-naphthyridin-3-yl}amino)pyrimidin-2-yl]-3-fluoropiperidin-4-yl]oxy}ethan-1-ol]
pIC50 [1]: ≥ 8.00
pIC50 (EGFR (L858R T790M C797S)): ≥ 7.82

CC(C)c1ccc(N2CC(CS(C)(=O)=O)C2)c2cnc(Nc3cnnc(N4CCC5(CCO5)CC4)n3)cc12 [Compound 42, 8-[3-(methanesulfonylmethyl)azetidin-1-yl]-N-(3-{1-oxa-7-azaspiro[3.5]nonan-7-yl}-1,2,4-triazin-5-yl)-5-(propan-2-yl)isoquinolin-3-amine]
pIC50 [1]: 7.70 to 8.00
pIC50 (EGFR (L858R T790M C797S)): ≥ 7.82

CO[C@@H]1CCN(c2nccc(Nc3cc4cccc(N5C[C@H](CS(C)(=O)=O)[C@H]5C)c4cn3)n2)C[C@@H]1F [Compound 5, N-{2-[(3S,4R)-3-fluoro-4-methoxypiperidin-1-yl]pyrimidin-4-yl}-8-[(2R,3S)-3-(methanesulfonylmethyl)-2-methylazetidin-1-yl]isoquinolin-3-amine]
pIC50 [1]: 7.70 to 8.00
pIC50 (EGFR (L858R T790M C797S)): ≥ 7.82

CCS(=O)(=O)C[C@H]1CN(c2ncc(C(C)C)c3cc(Nc4ccnc(N5CC[C@@H](OC)[C@@H](O)C5)n4)ncc23)[C@@H]1C (single isomer, unassigned) [Compound 178]
pIC50 [1]: ≥ 8.00
pIC50 (EGFR (L858R T790M C797S)): ≥ 7.82

CO[C@@H]1CCN(c2nccc(Nc3cc4c(C(C)C)ncc(N5C[C@H](CS(C)(=O)=O)[C@H]5C)c4cn3)n2)C[C@@H]1F [Compound 139, N-{2-[(3S,4R)-3-fluoro-4-methoxypiperidin-1-yl]pyrimidin-4-yl}-8-[(2R,3S)-3-(methanesulfonylmethyl)-2-methylazetidin-1-yl]-5-(propan-2-yl)-2,6-naphthyridin-3-amine]
pIC50 [1]: ≥ 8.00
pIC50 (EGFR (L858R T790M C797S)): ≥ 7.82

CC(C)c1ccc(N2C[C@@H](CS(C)(=O)=O)[C@@H]2C)c2cnc(Nc3ccnc(N4C[C@@H](F)[C@@H](O)C(C)(C)C4)n3)cc12 (single isomer, unassigned) [Compound 183, (4S,5R)-5-fluoro-1-[4-({8-[(2S,3R)-3-(methanesulfonylmethyl)-2-methylazetidin-1-yl]-5-(propan-2-yl)isoquinolin-3-yl}amino)pyrimidin-2-yl]-3,3-dimethylpiperidin-4-ol or (4R,5S)-5-fluoro-1-[4-({8-[(2S,3R)-3-(methanesulfonylmethyl)-2-methylazetidin-1-yl]-5-(propan-2-yl)isoquinolin-3-yl}amino)pyrimidin-2-yl]-3,3-dimethylpiperidin-4-ol]
pIC50 [1]: ≥ 8.00
pIC50 (EGFR (L858R T790M C797S)): 7.70 to 7.82
